Numbers after ± are expanded uncertainties.
Experiments:
[1] = 101 kPa, Liquid
[2] = xn = mol fraction of the nth substance listed; conditions: 101 kPa, Liquid

CCC(=O)[O-].OCC[NH2+]CCO [bis(2-hydroxyethyl)ammonium propanoate]
[1]
Conditions	mass density [kg/m3]	viscosity [mPa·s]
293.15 K	1142.7 ± 2.4	740.28 ± 110
303.15 K	1136.1 ± 2.4	322.17 ± 32
313.15 K	1129.2 ± 2.4	157.97 ± 9.9
323.15 K	1125.2 ± 2.3	96.54 ± 3.5

CCC(=O)[O-].OCC[NH2+]CCO [bis(2-hydroxyethyl)ammonium propanoate] + CCCO
[2]
Conditions	mass density, 293.15 K [kg/m3]	mass density, 303.15 K [kg/m3]	mass density, 313.15 K [kg/m3]	mass density, 323.15 K [kg/m3]	viscosity, 293.15 K [mPa·s]	viscosity, 303.15 K [mPa·s]	viscosity, 313.15 K [mPa·s]	viscosity, 323.15 K [mPa·s]
x1 = 0.0585	846.5 ± 1.7	839 ± 1.7	831.3 ± 1.7	823.1 ± 1.8	31.6 ± 1.1	15.37 ± 0.45	6.146 ± 0.19	3.897 ± 0.12
x1 = 0.1031	875.3 ± 1.5	867.9 ± 1.6	860.4 ± 1.6	852.6 ± 1.6	53.29 ± 1.1	21.15 ± 0.47	9.633 ± 0.22	6.039 ± 0.15
x1 = 0.2292	942.2 ± 1.3	935 ± 1.3	927.7 ± 1.3	920.9 ± 1.4	120.07 ± 5.8	47.98 ± 0.84	21.6 ± 0.38	13.44 ± 0.23
x1 = 0.3021	973.6 ± 1.2	966.5 ± 1.2	959.3 ± 1.3	952.9 ± 1.3	161.5 ± 10	66.19 ± 1.2	29.62 ± 0.47	18.46 ± 0.3
x1 = 0.4017	1010.3 ± 1.2	1003.3 ± 1.2	996.2 ± 1.2	990.3 ± 1.2	221.9 ± 18	91.87 ± 3.1	41.98 ± 0.65	26.24 ± 0.41
x1 = 0.5009	1041.2 ± 1.3	1034.3 ± 1.3	1027.3 ± 1.3	1021.9 ± 1.3	288.32 ± 27	119.16 ± 5.7	56.4 ± 0.64	35.31 ± 0.54
x1 = 0.636	1076.2 ± 1.6	1069.4 ± 1.6	1062.5 ± 1.5	1057.6 ± 1.5	393.08 ± 44	163.5 ± 11	80.35 ± 2.2	50.21 ± 0.47
x1 = 0.7135	1093.1 ± 1.7	1086.4 ± 1.7	1079.5 ± 1.7	1074.8 ± 1.6	461.84 ± 55	194.52 ± 14	96.42 ± 3.5	60.05 ± 0.79
x1 = 0.8018	1110.2 ± 1.9	1103.5 ± 1.9	1096.5 ± 1.9	1092.1 ± 1.8	547.5 ± 71	234.75 ± 20	116.23 ± 5.4	72 ± 1.5
x1 = 0.8979	1126.6 ± 2.2	1119.9 ± 2.1	1113 ± 2.1	1108.8 ± 2.1	646.69 ± 89	281.11 ± 26	138.08 ± 7.7	84.93 ± 2.5
x1 = 0.9568	1136 ± 2.3	1129.3 ± 2.3	1122.4 ± 2.2	1118.4 ± 2.2	701.08 ± 100	304.98 ± 30	149.64 ± 9	92.03 ± 3.1
x1 = 1	1142.7 ± 2.4	1136.1 ± 2.4	1129.2 ± 2.4	1125.2 ± 2.3	740.28 ± 110	322.17 ± 32	157.97 ± 9.9	96.54 ± 3.5

CO [methanol]
[1]
Conditions	mass density [kg/m3]	viscosity [mPa·s]
293.15 K	791.2 ± 1.9	0.6075 ± 0.023
303.15 K	781.8 ± 2	0.5535 ± 0.022
313.15 K	772.3 ± 2	0.501 ± 0.022
323.15 K	765.1 ± 2.1	0.4601 ± 0.021

CO [methanol] + CCC(=O)[O-].OCC[NH2+]CCO
[2], x2 = 0
Conditions	mass density [kg/m3]	viscosity [mPa·s]
293.15 K	791.2 ± 1.9	0.6075 ± 0.023
303.15 K	781.8 ± 2	0.5535 ± 0.022
313.15 K	772.3 ± 2	0.501 ± 0.022
323.15 K	765.1 ± 2.1	0.4601 ± 0.021

CCC(=O)[O-].OCC[NH2+]CCO [bis(2-hydroxyethyl)ammonium propanoate] + CO
[2]
Conditions	mass density, 293.15 K [kg/m3]	mass density, 303.15 K [kg/m3]	mass density, 313.15 K [kg/m3]	mass density, 323.15 K [kg/m3]	viscosity, 293.15 K [mPa·s]	viscosity, 303.15 K [mPa·s]	viscosity, 313.15 K [mPa·s]	viscosity, 323.15 K [mPa·s]
x1 = 0.0437	851.2 ± 1.7	842.3 ± 1.7	833.3 ± 1.7	826.8 ± 1.8	23.19 ± 1	13.01 ± 6	4.242 ± 0.17	2.639 ± 0.11
x1 = 0.1045	913.4 ± 1.4	905.2 ± 1.4	896.9 ± 1.5	891.1 ± 1.5	52.44 ± 1.1	20.18 ± 0.45	8.903 ± 0.21	5.509 ± 0.14
x1 = 0.2138	987.8 ± 1.2	980.3 ± 1.2	972.6 ± 1.2	967.8 ± 1.2	109.39 ± 4.8	42.76 ± 0.76	19 ± 0.34	11.76 ± 0.21
x1 = 0.2957	1024.6 ± 1.2	1017.4 ± 1.2	1010 ± 1.2	1005.5 ± 1.1	153.61 ± 9.4	62.12 ± 0.95	27.33 ± 0.44	16.99 ± 0.28
x1 = 0.4	1058.1 ± 1.4	1051.2 ± 1.3	1044 ± 1.3	1039.7 ± 1.3	210.82 ± 16	86.11 ± 2.6	38.58 ± 0.59	24.16 ± 0.37
x1 = 0.5038	1082.4 ± 1.5	1075.6 ± 1.5	1068.6 ± 1.5	1064.6 ± 1.4	269.65 ± 25	109.07 ± 4.7	50.82 ± 0.48	32.04 ± 0.48
x1 = 0.6125	1101.8 ± 1.7	1095.2 ± 1.7	1088.3 ± 1.6	1084.5 ± 1.6	337.06 ± 35	135.36 ± 7.4	65.92 ± 1.1	41.76 ± 0.62
x1 = 0.6981	1114 ± 1.8	1107.6 ± 1.8	1100.9 ± 1.8	1097.1 ± 1.7	399.51 ± 45	162.04 ± 10	80.81 ± 2.2	51.21 ± 0.49
x1 = 0.8026	1126.4 ± 2	1120 ± 2	1113.3 ± 2	1109.7 ± 1.9	496.91 ± 62	208.61 ± 16	104.49 ± 4.3	65.82 ± 1.1
x1 = 0.9121	1136.5 ± 2.3	1130.1 ± 2.2	1123.4 ± 2.2	1119.7 ± 2.1	636.96 ± 88	276.64 ± 26	135.75 ± 7.4	84.16 ± 2.5
x1 = 0.9587	1140 ± 2.4	1133.5 ± 2.3	1126.8 ± 2.3	1123 ± 2.2	692.41 ± 98	301.08 ± 29	147.67 ± 8.7	91.46 ± 3.1
x1 = 1	1142.7 ± 2.4	1136.1 ± 2.4	1129.2 ± 2.4	1125.2 ± 2.3	740.28 ± 110	322.17 ± 32	157.97 ± 9.9	96.54 ± 3.5

CCCO [propan-1-ol] + CCC(=O)[O-].OCC[NH2+]CCO
[2], x2 = 0
Conditions	mass density [kg/m3]	viscosity [mPa·s]
293.15 K	803.2 ± 1.9	2.141 ± 0.042
303.15 K	795.5 ± 1.9	1.788 ± 0.038
313.15 K	787.6 ± 1.9	1.391 ± 0.033
323.15 K	778.7 ± 2	1.098 ± 0.029

CCC(=O)[O-].OCC[NH2+]CCO [bis(2-hydroxyethyl)ammonium propanoate] + CCO
[2]
Conditions	mass density, 293.15 K [kg/m3]	mass density, 303.15 K [kg/m3]	mass density, 313.15 K [kg/m3]	mass density, 323.15 K [kg/m3]	viscosity, 293.15 K [mPa·s]	viscosity, 303.15 K [mPa·s]	viscosity, 313.15 K [mPa·s]	viscosity, 323.15 K [mPa·s]
x1 = 0.0536	842.7 ± 1.7	834.4 ± 1.7	826.6 ± 1.8	818.5 ± 1.8	28.36 ± 1.1	14.2 ± 0.43	5.271 ± 0.18	3.309 ± 0.11
x1 = 0.1087	887.2 ± 1.5	879.2 ± 1.5	871.7 ± 1.6	864.2 ± 1.6	55.19 ± 1.1	21.36 ± 0.46	9.602 ± 0.22	5.974 ± 0.14
x1 = 0.2052	947 ± 1.3	939.4 ± 1.3	932.2 ± 1.3	925.5 ± 1.4	105.81 ± 4.5	41.43 ± 0.74	18.6 ± 0.33	11.54 ± 0.21
x1 = 0.3168	997.5 ± 1.1	990.1 ± 1.2	983 ± 1.2	977.1 ± 1.2	167.85 ± 11	68.6 ± 1.3	30.49 ± 0.49	18.98 ± 0.31
x1 = 0.4238	1034.5 ± 1.3	1027.3 ± 1.3	1020.2 ± 1.2	1014.8 ± 1.2	231.31 ± 19	95.16 ± 3.4	43.46 ± 0.67	27.2 ± 0.42
x1 = 0.5084	1058.3 ± 1.4	1051.2 ± 1.4	1044.2 ± 1.4	1039.1 ± 1.3	284.44 ± 27	116.45 ± 5.4	54.87 ± 0.58	34.45 ± 0.52
x1 = 0.5946	1078.8 ± 1.6	1071.8 ± 1.5	1064.9 ± 1.5	1060 ± 1.5	343.18 ± 36	140.21 ± 7.9	68.08 ± 1.2	42.81 ± 0.64
x1 = 0.6965	1099.1 ± 1.8	1092.3 ± 1.7	1085.4 ± 1.7	1080.8 ± 1.7	428.04 ± 50	177.51 ± 12	88.08 ± 2.8	55.22 ± 0.59
x1 = 0.804	1116.8 ± 2	1110 ± 1.9	1103.1 ± 1.9	1098.8 ± 1.9	531.61 ± 68	226.45 ± 19	112.51 ± 5	70.07 ± 1.4
x1 = 0.8895	1128.8 ± 2.2	1122 ± 2.1	1115.1 ± 2.1	1111 ± 2.1	626.32 ± 85	271.72 ± 25	133.71 ± 7.2	82.61 ± 2.3
x1 = 0.9458	1136 ± 2.3	1129.3 ± 2.3	1122.4 ± 2.2	1118.3 ± 2.2	686.37 ± 97	298.35 ± 29	146.49 ± 8.6	90.38 ± 3
x1 = 1	1142.7 ± 2.4	1136.1 ± 2.4	1129.2 ± 2.4	1125.2 ± 2.3	740.28 ± 110	322.17 ± 32	157.97 ± 9.9	96.54 ± 3.5

CCO [ethanol]
[1]
Conditions	mass density [kg/m3]	viscosity [mPa·s]
293.15 K	789.3 ± 1.9	1.18 ± 0.03
303.15 K	780.7 ± 2	1.019 ± 0.028
313.15 K	772.5 ± 2	0.8424 ± 0.026
323.15 K	763.6 ± 2.1	0.7081 ± 0.024

CCO [ethanol] + CCC(=O)[O-].OCC[NH2+]CCO
[2], x2 = 0
Conditions	mass density [kg/m3]	viscosity [mPa·s]
293.15 K	789.3 ± 1.9	1.18 ± 0.03
303.15 K	780.7 ± 2	1.019 ± 0.028
313.15 K	772.5 ± 2	0.8424 ± 0.026
323.15 K	763.6 ± 2.1	0.7081 ± 0.024

CCCO [propan-1-ol]
[1]
Conditions	mass density [kg/m3]	viscosity [mPa·s]
293.15 K	803.2 ± 1.9	2.141 ± 0.042
303.15 K	795.5 ± 1.9	1.788 ± 0.038
313.15 K	787.6 ± 1.9	1.391 ± 0.033
323.15 K	778.7 ± 2	1.098 ± 0.029
